Test results: patent US20250186463A1, “ABIRATERONE DECANOATE PRODRUGS AND USE IN THERAPY” (PROPELLA THERAPEUTICS, INC., priority 2022, published 2025)

Test system: serum testosterone
Experiment: Phase 1/2a open-label study of i.m. abiraterone decanoate depot in advanced prostate cancer: serum testosterone
Type: in vivo, human
Conditions: for serum testosterone reduction from baseline: day 168
Description: This is a Phase 1/2a, Open-label, Multicenter Study of Intramuscular Abiraterone Decanoate Depot in Patients with Advanced Prostate Cancer.
Formulations and dosing regimen: The formulation used in the study (abiraterone decanoate for intramuscular [i.m.] injection) is a solution formulation of abiraterone decanoate at a concentration of 180 mg/mL and will be provided as a 10 mL vial containing 990 mg of abiraterone decanoate in 5.5 mL of solution. See further details of the formulations in Example 2 (for each milliliter: Abiraterone Decanoate, about 180 mg/mL; Benzyl Alcohol, about 100 mg/mL; Benzyl Benzoate, about 200 mg/mL; and Corn oil, q.s. to 1 mL). Abiraterone Decanoate will be administered as an i.m. injection every 84 days (±3 days). Dose escalation will proceed with a modified Fibonacci sequence. Based on emerging data, intermediate doses may be evaluated.
Study Design: This is a Phase 1/2a, Open-label, Multicenter Study of Intramuscular Abiraterone Decanoate Depot in Patients with Advanced Prostate Cancer. In Phase 1, all patients will receive i.m. Abiraterone Decanoate depot in 84-day treatment cycles combined with daily oral prednisone or dexamethasone. In Phase 2a, patients will be randomized 1:1 and treated with i.m. Abiraterone Decanoate depot in 84-day treatment cycles in combination with dexamethasone (Arm A) or abiraterone acetate daily+prednisone (Arm B). In both Phases, patients will undergo scheduled periodic assessments of serum testosterone levels. Participants may continue treatment until they meet any discontinuation criteria outlined in the protocol.
Phase 1—Dose Escalation: Eligible patients with metastatic castration-sensitive prostate cancer (mCSPC) and patients with metastatic castration-resistant prostate cancer (mCRPC) will be enrolled. The initial dose of Abiraterone Decanoate to be administered is based on findings from completed non-human primate toxicology and pharmacology studies; dose escalation will proceed in a modified Fibonacci sequence. A Safety Review Committee (SRC) will be established to review available cohort safety data, and pharmacokinetic and pharmacodynamic findings (particularly testosterone suppression) to recommend a decision on dose escalation including whether intermediate doses should be explored.
Pharmacodynamic Analysis: Determination of Prostate Specific Antigen (PSA), serum testosterone, dehydroepiandrosterone (DHEA), dehydroepiandrosterone sulfate (DHEA-S), androstenedione, dihydrotestosterone (DHT), progesterone, cortisol, adrenocorticotropic hormone (ACTH), corticosterone, 11-dexoycorticosterone (11-DOC) and 11-deoxycortisol.
Based on the available data, the recommended dose for Phase 2 is about 1260 mg abiraterone decanoate once every three months (12 weeks). All cohorts 1 and 2 in this clinical study were treated with prednisone, 5 mg orally once or twice daily; and all cohorts 3-5 were treated with dexamethasone, 0.5 mg orally once daily. The results shown herein for these cohorts should be understood accordingly.
The median baseline T level, calculated from mean of screening and Day 1 of Cycle 1 pre-dose samples, was 7.45 ng/dL.

CCCCCCCCCC(=O)O[C@H]1CC[C@@]2(C)C(=CC[C@@H]3[C@@H]2CC[C@]2(C)C(c4cccnc4)=CC[C@@H]32)C1 [abiraterone decanoate]
Serum Testosterone (% CFB) (Cohort 1, 180 mg i.m., Study Day 1 (baseline)): 0% | Serum Testosterone (% CFB) (Cohort 1, 180 mg i.m., Study Day 2): −33% | Serum Testosterone (% CFB) (Cohort 1, 180 mg i.m., Study Day 3): −42% | Serum Testosterone (% CFB) (Cohort 1, 180 mg i.m., Study Day 5): −48% | Serum Testosterone (% CFB) (Cohort 1, 180 mg i.m., Study Day 7): −52% | Serum Testosterone (% CFB) (Cohort 1, 180 mg i.m., Study Day 10): −61% | Serum Testosterone (% CFB) (Cohort 1, 180 mg i.m., Study Day 14): −67% | Serum Testosterone (% CFB) (Cohort 1, 180 mg i.m., Study Day 21): −71% | Serum Testosterone (% CFB) (Cohort 1, 180 mg i.m., Study Day 28): −73% | Serum Testosterone (% CFB) (Cohort 1, 180 mg i.m., Study Day 42): −65% | Serum Testosterone (% CFB) (Cohort 1, 180 mg i.m., Study Day 56): −55% | Serum Testosterone (% CFB) (Cohort 1, 180 mg i.m., Study Day 70): −47% | Serum Testosterone (% CFB) (Cohort 2, 360 mg i.m., Study Day 1 (baseline)): 0% | Serum Testosterone (% CFB) (Cohort 2, 360 mg i.m., Study Day 2): −11% | Serum Testosterone (% CFB) (Cohort 2, 360 mg i.m., Study Day 3): 0% | Serum Testosterone (% CFB) (Cohort 2, 360 mg i.m., Study Day 5): −28% | Serum Testosterone (% CFB) (Cohort 2, 360 mg i.m., Study Day 7): −49% | Serum Testosterone (% CFB) (Cohort 2, 360 mg i.m., Study Day 10): −51% | Serum Testosterone (% CFB) (Cohort 2, 360 mg i.m., Study Day 14): −67% | Serum Testosterone (% CFB) (Cohort 2, 360 mg i.m., Study Day 21): −72% | Serum Testosterone (% CFB) (Cohort 2, 360 mg i.m., Study Day 28): −71% | Serum Testosterone (% CFB) (Cohort 2, 360 mg i.m., Study Day 42): −64% | Serum Testosterone (% CFB) (Cohort 2, 360 mg i.m., Study Day 56): −60% | Serum Testosterone (% CFB) (Cohort 2, 360 mg i.m., Study Day 70): −56% | Serum Testosterone (% CFB) (Cohort 2, 360 mg i.m., Study Day 77): −56% | Serum Testosterone (% CFB) (Cohort 2, 360 mg i.m., Study Day 84): −49% | Serum Testosterone (% CFB) (Cohort 2, 360 mg i.m., Study Day 112): −79% | Serum Testosterone (% CFB) (Cohort 2, 360 mg i.m., Study Day 140): −63% | Serum Testosterone (% CFB) (Cohort 2, 360 mg i.m., Study Day 168): −32% | Serum Testosterone (% CFB) (Cohort 2, 360 mg i.m., Study Day 196): −56% | Serum Testosterone (% CFB) (Cohort 3, 720 mg i.m., Study Day 1 (baseline)): 0% | Serum Testosterone (% CFB) (Cohort 3, 720 mg i.m., Study Day 2): −41% | Serum Testosterone (% CFB) (Cohort 3, 720 mg i.m., Study Day 3): −50% | Serum Testosterone (% CFB) (Cohort 3, 720 mg i.m., Study Day 5): −48% | Serum Testosterone (% CFB) (Cohort 3, 720 mg i.m., Study Day 7): −65% | Serum Testosterone (% CFB) (Cohort 3, 720 mg i.m., Study Day 10): −74% | Serum Testosterone (% CFB) (Cohort 3, 720 mg i.m., Study Day 14): −82% | Serum Testosterone (% CFB) (Cohort 3, 720 mg i.m., Study Day 21): −87% | Serum Testosterone (% CFB) (Cohort 3, 720 mg i.m., Study Day 28): −85% | Serum Testosterone (% CFB) (Cohort 3, 720 mg i.m., Study Day 42): −81% | Serum Testosterone (% CFB) (Cohort 3, 720 mg i.m., Study Day 56): −83% | Serum Testosterone (% CFB) (Cohort 3, 720 mg i.m., Study Day 70): −81% | Serum Testosterone (% CFB) (Cohort 3, 720 mg i.m., Study Day 77): −80% | Serum Testosterone (% CFB) (Cohort 3, 720 mg i.m., Study Day 84): −76% | Serum Testosterone (% CFB) (Cohort 3, 720 mg i.m., Study Day 112): −94% | Serum Testosterone (% CFB) (Cohort 3, 720 mg i.m., Study Day 140): −88% | Serum Testosterone (% CFB) (Cohort 3, 720 mg i.m., Study Day 168): −80% | Serum Testosterone (% CFB) (Cohort 3, 720 mg i.m., Study Day 196): −93% | Serum Testosterone (% CFB) (Cohort 4, 1260 mg i.m., Study Day 1 (baseline)): 0% | Serum Testosterone (% CFB) (Cohort 4, 1260 mg i.m., Study Day 2): −51% | Serum Testosterone (% CFB) (Cohort 4, 1260 mg i.m., Study Day 3): −65% | Serum Testosterone (% CFB) (Cohort 4, 1260 mg i.m., Study Day 5): −69% | Serum Testosterone (% CFB) (Cohort 4, 1260 mg i.m., Study Day 7): −79% | Serum Testosterone (% CFB) (Cohort 4, 1260 mg i.m., Study Day 10): −79% | Serum Testosterone (% CFB) (Cohort 4, 1260 mg i.m., Study Day 14): −80% | Serum Testosterone (% CFB) (Cohort 4, 1260 mg i.m., Study Day 21): −88% | Serum Testosterone (% CFB) (Cohort 4, 1260 mg i.m., Study Day 28): −89% | Serum Testosterone (% CFB) (Cohort 4, 1260 mg i.m., Study Day 42): −90% | Serum Testosterone (% CFB) (Cohort 4, 1260 mg i.m., Study Day 56): −89% | Serum Testosterone (% CFB) (Cohort 4, 1260 mg i.m., Study Day 70): −80% | Serum Testosterone (% CFB) (Cohort 4, 1260 mg i.m., Study Day 77): −87% | Serum Testosterone (% CFB) (Cohort 4, 1260 mg i.m., Study Day 84): −83% | Serum Testosterone (% CFB) (Cohort 4, 1260 mg i.m., Study Day 112): −93% | Serum Testosterone (% CFB) (Cohort 4, 1260 mg i.m., Study Day 140): −89% | Serum Testosterone (% CFB) (Cohort 4, 1260 mg i.m., Study Day 168): −86% | Serum Testosterone (% CFB) (Cohort 4, 1260 mg i.m., Study Day 196): −97% | Serum Testosterone (% CFB) (Cohort 5, 1800 mg i.m., Study Day 1 (baseline)): 0% | Serum Testosterone (% CFB) (Cohort 5, 1800 mg i.m., Study Day 2): −41% | Serum Testosterone (% CFB) (Cohort 5, 1800 mg i.m., Study Day 3): −46% | Serum Testosterone (% CFB) (Cohort 5, 1800 mg i.m., Study Day 5): −62% | Serum Testosterone (% CFB) (Cohort 5, 1800 mg i.m., Study Day 7): −76% | Serum Testosterone (% CFB) (Cohort 5, 1800 mg i.m., Study Day 10): −79% | Serum Testosterone (% CFB) (Cohort 5, 1800 mg i.m., Study Day 14): −85% | Serum Testosterone (% CFB) (Cohort 5, 1800 mg i.m., Study Day 21): −88% | Serum Testosterone (% CFB) (Cohort 5, 1800 mg i.m., Study Day 28): −88% | Serum Testosterone (% CFB) (Cohort 5, 1800 mg i.m., Study Day 42): −93% | Serum Testosterone (% CFB) (Cohort 5, 1800 mg i.m., Study Day 56): −79% | Serum Testosterone (% CFB) (Cohort 5, 1800 mg i.m., Study Day 70): −87% | Serum Testosterone (% CFB) (Cohort 5, 1800 mg i.m., Study Day 77): −88% | Serum Testosterone (% CFB) (Cohort 5, 1800 mg i.m., Study Day 84): −88% | Serum Testosterone (% CFB) (Cohort 5, 1800 mg i.m., Study Day 112): −83% | Serum Testosterone (% CFB) (Cohort 5, 1800 mg i.m., Study Day 140): −96% | Serum Testosterone (% CFB) (Cohort 5, 1800 mg i.m., Study Day 168): −95% | Serum Testosterone (% CFB) (Cohort 5, 1800 mg i.m., Study Day 196): −98% | decline in testosterone (Patient 1, cohort 1, 180 mg, treatment days 21-56): 59-61% | androgen suppression (Patient 2, cohort 2, 360 mg, progressed after Xtandi, FIG. 6): sustained androgen suppression | serum testosterone reduction from baseline (cohort 3 (720 mg)): 80% | serum testosterone reduction from baseline (cohort 4 (1260 mg)): 86% | serum testosterone reduction from baseline (cohort 5 (1800 mg)): up to 95% | patients with a 90% reduction in testosterone levels compared to baseline or values reduced to ≤1 ng/dL (patients dosed at 720 mg and above, day 28): 13 out of 16
